# Experimental data: patent publication US9115145B2, “Tocotrienol derivatives and associated methods” (FIRST TECH INTERNATIONAL LIMITED, priority 2011, dated 2015)
# pIC50: −log10 of the molar value. Read-outs that look alike come from different tables or passages of the source.
# Columns and labels:
# [1] = system: MCF7 human breast cancer cell line; assay: MTT assay of MCF7 cells; type: cell-based; settings: Homo sapiens, media containing 1% fetal bovine serum
# Experimental: (§1) MDA-MB-231 and MCF7 cells were plated at a density of 8×10^3 cells/well and 10^4 cells/well in 96-well culture plates, respectively. The compounds were fed in serum free media containing 5% and 1% fetal bovine serum for MDA-MB-231 and MCF7 cells, respectively.
# [2] = system: MDA-MB-231 human breast cancer cell line; assay: MTT assay of MDA-MB-231 cells; type: cell-based; settings: Homo sapiens, media containing 5% fetal bovine serum
# Experimental: as §1
# [3] = system: MDA-MB-231 human breast cancer cells; assay: Wound-healing assay (cell migration); type: cell-based; settings: Homo sapiens; for inhibition at 5 µM: MDA-MB-231, 24 h, wound-healing assay; for pIC50: MDA-MB-231, wound-healing assay, dose response, read-out: IC50 antimigratory activity
# Experimental: The highly metastatic human breast cancer MDA-MB-231 cells were cultured in RPMI 1640 medium containing 10 mM HEPES, 4 mM L-glutamine, 10% fetal bovine serum, penicillin (100 IU/mL), and streptomycin (50 μg/mL), and grown in a 5% CO2 atmosphere at 37° C. Cells were plated onto sterile 24-well and allowed to recover for a confluent cell monolayer formed in each well (>95% confluence). Wounds were then inflicted to each cell monolayer using a sterile 200 μL pipette tip. Media were removed, cells monolayers were washed twice with PBS, and then fresh media containing test compounds were added to each well. Test compounds were prepared in DMSO at 5 μM concentration and added to the plates, each in triplicate using DMSO as negative control. The incubation was carried out for 24 h under serum-starved conditions, after which media was removed and cells were fixed and stained using a staining composition sold under the trade name Diff Quick (Dade Behring Diagnostics, Aguada, Puerto Rico). The stain comprised a fixative reagent containing 1.8 mg/L triarylmethane dye in methyl alcohol; a first solution of 1 g/L xanthene dye, buffer, and sodium azide (0.01%) as preservative; and a second solution of 1.25 g/L Thiazine dye mixture (0.625 g/L azure A and 0.625 g/L methylene blue) and buffer. The number of cells migrated on the scratched wound were counted under the microscope in three or more randomly selected fields (magnification: 400×). Final results are expressed as mean±SEM per 400× field. The wound-healing assay is a simple method for the study of directional cell migration in vitro.
# Compounds were tested for their ability to inhibit the migration of the highly metastatic MDA-MB-231 human breast cancer cells in the wound-healing assay using the procedure described above. Compounds 6, 10, 12, 13, 24, 26, 27, and 29 inhibited the migration of more than 50% of the human breast cancer cells MDA-MB-231 in the wound healing assay at 5 μM dose. […] The antimigratory activity of tocotrienols may be enhanced by a terminal aromatic functionality. The presence of electron withdrawing group, such as nitro in Compound 29, may eliminate the antiproliferative activity yet retain the antimigratory activity of the compound. While the electron donating groups, such as OH and OMe found in Compounds 23 and 26, respectively, retained both antiproliferative and antimigratory activities.
# Utilizing similar procedures follow-up testing was conducted on a variety of compounds using a range of compound concentrations. The results of follow-up antimigratory testing are shown in FIG. 35B and Table III below with IC50 values calculated using statistical software.
# [4] = system: MCF 10A non-tumorigenic mammary epithelial cells; assay: MTT assay of MCF10A cells; type: cell-based, human; settings: for pIC50: Homo sapiens; for Selectivity index: IC50 for MCF 10A divided by IC50 for +SA cell line
# Experimental: MCF 10A (ATCC cat # CRL-10317) normal human non-tumorigenic mammary epithelial cells were maintained in serum-free defined medium consisting of Dulbecco's modified Eagle's medium (DMEM)/F12 containing 5% horse serum, 1% penicillin/streptomycin, 0.5 μg/mL hydrocortisone, 100 ng/mL cholera toxin, 10 μg/mL insulin, and 20 ng/mL epidermal growth factor (rhEGF). For subculturing, cells were rinsed twice with sterile Ca2+ and Mg2+-free phosphate buffered saline (PBS) and incubated in 0.25% trypsin containing 0.025% EDTA in PBS for 5 min at 37° C. The released cells were centrifuged, re-suspended in fresh media and counted using a hemocytometer. For testing, MCF 10A cells were plated at a density of 10×10^4 cells/well. A stock solution of the compounds was prepared in DMSO. DMSO was added to all treatment media such that the final DMSO concentration was the same in all treatment groups within a given experiment and was always less than 0.1%. The compounds were fed in serum free media. MCF10A mammary epithelial cell's viable number was determined by MTT colorimetric assay. […] IC50 values were calculated by non-linear regression using statistical software. The selectivity index indicated in the table represents the IC50 value for the MCF 10A cell line divided by the IC50 value for the +SA cell line.
# [5] = MCF-10A, MCF10A cells, Table II, non-linear regression, read-out: MCF10A (IC50)
# [6] = MCF 10A non-tumorigenic cells, Table I, read-out: IC50 MCF 10A
Structure (SMILES),pIC50 [1],pIC50 [2],inhibition at 5 µM [3] [%],pIC50 [3],"pIC50 [4, 5]","pIC50 [4, 6]",Selectivity index [4]
"CC(C)=CCC/C(C)=C/CC/C(C)=C/CC[C@]1(C)CCc2c3c(c(C)c(C)c2O1)OCN(CCCCCCCCCCCCO)C3 [Compound 43, 12-((R)-5,6,8-trimethyl-8-((3E,7E)-4,8,12-trimethyltrideca-3,7,11-trienyl)-9,10-dihydrochromeno[5,6-e][1,3]oxazin-2(1H,3H,8H)-yl)dodecan-1-ol]",< 4.70,< 4.30,–,–,–,–,–
"CC(C)=CCC/C(C)=C/CC/C(C)=C/CC[C@]1(C)CCc2c3c(c(C)c(C)c2O1)OCN(CCCO)C3 [Compound 12, 3-((R)-5,6,8-trimethyl-8-((3E,7E)-4,8,12-trimethyltrideca-3,7,11-trienyl)-9,10-dihydrochromeno[5,6-e][1,3]oxazin-2(1H,3H,8H)-yl)propan-1-ol]",< 4.70,5.02,> 50,5.09,–,–,–
"CC(C)=CCC/C(C)=C/CC/C(C)=C/CC[C@]1(C)CCc2c3c(c(C)c(C)c2O1)OCN(CCCCCCCCO)C3 [Compound 39, 8-((R)-5,6,8-trimethyl-8-((3E,7E)-4,8,12-trimethyltrideca-3,7,11-trienyl)-9,10-dihydrochromeno[5,6-e][1,3]oxazin-2(1H,3H,8H)-yl)octan-1-ol]",< 4.70,< 4.70,–,5.33,5.70,5.70,1.43
"CC(C)=CCC/C(C)=C/CC/C(C)=C/CC[C@]1(C)CCc2c3c(cc(C)c2O1)OCN(CCCCCO)C3 [Compound 18, 5-((R)-6,8-dimethyl-8-((3E,7E)-4,8,12-trimethyltrideca-3,7,11-trienyl)-9,10-dihydrochromeno[5,6-e][1,3]oxazin-2(1H,3H,8H)-yl)pentan-1-ol]",5.04,5.05,–,–,5.34,5.34,6.57
"CC(C)=CCC/C(C)=C/CC/C(C)=C/CC[C@]1(C)CCc2c3c(cc(C)c2O1)OCN(CCCCCCCCCCCCO)C3 [Compound 44, 12-((R)-6,8-dimethyl-8-((3E,7E)-4,8,12-trimethyltrideca-3,7,11-trienyl)-9,10-dihydrochromeno[5,6-e][1,3]oxazin-2(1H,3H,8H)-yl)dodecan-1-ol]",< 4.70,< 4.30,–,–,–,–,–
"CC(C)=CCC/C(C)=C/CC/C(C)=C/CC[C@]1(C)CCc2c3c(cc(C)c2O1)OCN(CCc1ccc(O)cc1)C3 [Compound 27, 4-(2-((R)-6,8-dimethyl-8-((3E,7E)-4,8,12-trimethyltrideca-3,7,11-trienyl)-9,10-dihydrochromeno[5,6-e][1,3]oxazin-2(1H,3H,8H)-yl)ethyl)phenol]",4.74,< 5.30,> 50,5.62,5.72,5.72,2.09
"COc1ccc(CCN2COc3cc(C)c4c(c3C2)CC[C@@](C)(CC/C=C(\C)CC/C=C(\C)CCC=C(C)C)O4)cc1OC [Compound 24, (R)-2-(3,4-dimethoxyphenethyl)-6,8-dimethyl-8-((3E,7E)-4,8,12-trimethyltrideca-3,7,11-trienyl)-1,2,3,8,9,10-hexahydrochromeno[5,6-e][1,3]oxazine]",–,–,> 50,–,–,–,–
"CC(C)=CCC/C(C)=C/CC/C(C)=C/CC[C@]1(C)CCc2c3c(c(C)c(C)c2O1)OCN(CCCCO)C3 [Compound 35, 4-((R)-5,6,8-trimethyl-8-((3E,7E)-4,8,12-trimethyltrideca-3,7,11-trienyl)-9,10-dihydrochromeno[5,6-e][1,3]oxazin-2(1H,3H,8H)-yl)butan-1-ol]",< 4.70,4.86,–,4.97,–,–,–
"CC(C)=CCC/C(C)=C/CC/C(C)=C/CC[C@]1(C)CCc2c3c(c(C)c(C)c2O1)OCN(CCCCCCCCCCO)C3 [Compound 41, 10-((R)-5,6,8-trimethyl-8-((3E,7E)-4,8,12-trimethyltrideca-3,7,11-trienyl)-9,10-dihydrochromeno[5,6-e][1,3]oxazin-2(1H,3H,8H)-yl)decan-1-ol]",4.71,4.80,–,–,–,–,–
"CC(C)=CCC/C(C)=C/CC/C(C)=C/CC[C@]1(C)CCc2c3c(c(C)c(C)c2O1)OCN(CCCCCCO)C3 [Compound 37, 6-((R)-5,6,8-trimethyl-8-((3E,7E)-4,8,12-trimethyltrideca-3,7,11-trienyl)-9,10-dihydrochromeno[5,6-e][1,3]oxazin-2(1H,3H,8H)-yl)hexan-1-ol]",< 4.70,< 5.00,–,–,–,–,–
"CC(C)=CCC/C(C)=C/CC/C(C)=C/CC[C@]1(C)CCc2c3c(cc(C)c2O1)OCN(CCO)C3 [Compound 10, 2-((R)-6,8-dimethyl-8-((3E,7E)-4,8,12-trimethyltrideca-3,7,11-trienyl)-9,10-dihydrochromeno[5,6-e][1,3]oxazin-2(1H,3H,8H)-yl)ethanol]",5.22,< 5.30,> 50,5.89,–,5.51,–
"CC(C)=CCC/C(C)=C/CC/C(C)=C/CC[C@]1(C)CCc2c3c(cc(C)c2O1)OCN(CCCCCCCCCCO)C3 [Compound 42, 10-((R)-6,8-dimethyl-8-((3E,7E)-4,8,12-trimethyltrideca-3,7,11-trienyl)-9,10-dihydrochromeno[5,6-e][1,3]oxazin-2(1H,3H,8H)-yl)decan-1-ol]",5.34,4.91,–,5.14,–,–,–
